Measurements published in patent US4209439A, “Stabilization of vinyl resins” (priority 1977, dated 1980).

What was measured:
[1] = sublimation at 160° C. for 6 hours under nitrogen; assay type: physicochemical
Description: A test sample of about 130 mg of the product to be investigated is introduced into a 100 cc beaker. The latter is placed in a 250 cc reactor. The temperature is kept at 160° C. by means of a thermostatically controlled oil bath for 6 hours, the atmosphere of the reactor being inert (nitrogen) in order to avoid the oxidation of the 1,4-dihydropyridine into pyridine, which is more sublimable.
For each dihydropyridine derivative which is investigated, the result is expressed as a percentage of sublimed product relatively to the quantity being used.

[2] = migration of stabiliser from PVC into solutions or solvents simulating foods at 50° C.; assay type: physicochemical
Description: (§1) The technique as regards extraction was the following: using the formula which is given below, a batch of bottles (volume 1 liter, diameter 70 mm, height.perspectiveto.230 mm) was prepared, the said bottles being filled with a liquid simulating the foods. […] The migration of the stabiliser was judged by dosage of the pyridine present in the extractum, using the dosage method which is later described. This pyridine obviously represents the oxidised form of the extracted 1,4-dihydropyridine.
(§2) The stabilisers are measured out in the form of their oxidation product (pyridine).
(§3) The oxidation is made quantitative by adding a few drops of iodine to the solution. The latter is then extracted with chloroform and the chloroform is evaporated to a small residual volume. The solution obtained is then subjected to thin-film chromatography, by comparison with solutions of known concentration of the desired pyridines.
(§4) The sensitivity threshold of this technique is 5 μg/liter.
For justifying the possibility of using the dihydropyridines (I) having a radical R comprising from 9 to 22 carbon atoms in applications concerned with food packaging, other than those applications relating to mineral waters, the extractability of the dihydropyridines by several solutions or solvents having the following composition, by weight, was investigated:
(a) water-sodium chloride: 97-3
(b) water-saccharose: 90-10
(c) water-sodium chloride-acetic acid: 98.5-0.5-1
(d) water-citric acid (solution at pH=5): 98-2
(e) water-acetic acid: 97-3
(f) water-acetic acid: 90-10
(h) water-acetic acid: 50-50

[3] = migration of stabiliser from PVC bottles into water at 50° C.; assay type: physicochemical; conditions: water 50° C.
Description: 2.2--Study of the migration
The migration or the extractability of the stabiliser from the PVC compound under the effect of various liquids (and particularly water) stored in a plastic container is of essential importance for the use of these stabilisers in the field of food packagings.
as §1
The investigation was particularly developed for water at 50° C. over a period of 2 months, because it represents the important problem regarding the packaging of mineral waters.
Formula for the manufacture of bottles
The S L 2016 is a solution of zinc 2-ethyl hexanoate in a mixture of aromatic hydrocarbons boiling from 158° to 184° C.
as §2, §3, §4

[4] = thermostability of rigid vinyl chloride-vinylidene chloride copolymer, ventilated oven at 210° C.; conditions: 0.15 p.c.r.; Example 29
Description: Rigid copolymer formula vinyl chloride-vinylidene chloride copolymer.
Passage through a ventilated oven at 210° C.
Passage through ventilated oven at 210° C.
Passage in ventilated oven at 210° C.

[5] = polarographic oxidation potential (Example 31); assay type: physicochemical; conditions: 0.5 m.mole/liter; methanol/acetic acid; 35° C.
Description: platinum counter-electrode and calomel electrode with filling by a saturated aqueous solution of lithium chloride.
The measurements were carried out in the following solvent:
90 parts of an 0.1 M solution of lithium perchlorate in methanol, 10 parts of a 0.1 M solution of perchloric acid in acetic acid. square voltage superimposed with constant pulses of +10 millivolts, initial potential: 500 millivolts, scanning voltage: 1000 millivolts in the anode direction, oxidation at the vitreous carbon electrode (speed of rotation: 2000 r.p.m.)

[6] = polarographic study of the oxidation potential (Example 30); assay type: physicochemical; conditions: acetonitrile, lithium perchlorate; calomel electrode; in V (unit assumed)
Description: 261. Polarographic study of the oxidation potential […]
reference electrode: a calomel electrode which contains, as junction liquid, a saturated solution of anhydrous lithium perchlorate working electrode: rotating electrode of vitreous carbon (2500 r.p.m.) counter-electrode: platinum. acetonitrile, having a water content smaller than 0.1% and not presenting any polarographic waves between -2.5 volts and +2.5 volts.
0.1 M solution of lithium perchlorate in acetonitrile, treated and preserved on a molecular screen of 4 A. […]
exploration amplitude: 0 to 2 V exploration speed: 10 mV/sec.

[7] = stabilisation of plasticised polyvinyl chloride resins: mixing at 180° C., pressing at 170° C.; conditions: for Colour stability / Thermal stability: 180° C.
Description: Sheets of polyvinyl chloride, previously mixed for 5 minutes at 180° C., were pressed for 5 minutes at 170° C., and the colour stability and the heat stability after mixing, and then the coloration of the sheets after pressing, were observed.
As adjuvants, as well as the stabiliser to be tested, the resin in question contains wax E, dioctyl phthalate, barium stearate and cadmium stearate, in the following proportions: […]

[8] = resin 5: 0.1, Ba 0.375, Cd 0.375
[9] = resin 7: 0.05, Ba 0.375, Cd 0.15
[10] = resin 9: 0.05, Ba 0.375, Cd 0.05

SMILES: COC(=O)C1=C(C)NC(C)=C(C(=O)OC)C1 [L.28504, 2,6-Dimethyl-3,5-dicarbomethoxy-1,4-dihydropyridine]
- % of sublimed product ([1]; 160° C., 6 hours, nitrogen): 34.2%
- sublimation ([1]; of the quantity of product being used): 34%
- Migration ([2]; H2O/NaCl (97:3), 0.3, 1 month): 100 µg/L
- Migration ([2]; H2O/NaCl (97:3), 0.3, 2 months): 120 µg/L
- Migration ([2]; Heptane, 0.3 pcr, after 36 h): 300 µg/L
- Migration ([2]; Heptane, 0.3 pcr, after 84 h): 390 µg/L
- Migration ([2]; Water/C2H5OH (50:50), 0.3, 1 month): 250 µg/L
- Migration ([2]; Water/C2H5OH (85:15), 0.3, 1 month): 150 µg/L
- Migration ([2]; Water/C2H5OH (85:15), 0.3, 2 months): 180 µg/L
- Migration ([2]; Water/CH3COOH (50:50), 0.3, 1 month): 150 µg/L
- Migration ([2]; Water/CH3COOH (50:50), 0.3, 2 months): 200 µg/L
- Migration ([2]; Water/CH3COOH (90:10), 0.3, 1 month): 120 µg/L
- Migration ([2]; Water/CH3COOH (90:10), 0.3, 2 months): 140 µg/L
- Migration ([2]; Water/CH3COOH (97:3), 0.3, 1 month): 90 µg/L
- Migration ([2]; Water/CH3COOH (97:3), 0.3, 2 months): 120 µg/L
- Migration ([2]; Water/NaCl/CH3COOH (98,5:0,5:1), 0.3, 1 month): 110 µg/L
- Migration ([2]; Water/NaCl/CH3COOH (98,5:0,5:1), 0.3, 2 months): 120 µg/L
- Migration ([2]; Water/Sacchrose (90:10), 0.3, 1 month): 100 µg/L
- Migration ([2]; Water/Sacchrose (90:10), 0.3, 2 months): 100 µg/L
- Migration ([2]; Water/citric acid (98:2), pH 5, 0.3, 1 month): 110 µg/L
- Migration ([2]; Water/citric acid (98:2), pH 5, 0.3, 2 months): 130 µg/L
- Migration ([3]; 0.15 pct, 1 month): 70 µg/L
- Migration ([3]; 0.15 pct, 2 months): 80 µg/L
- Migration ([3]; 0.15 pct, 10 days): 15 µg/L
- Migration ([3]; 0.15 pct, 20 days): 40 µg/L
- Migration ([3]; 0.30 pct, 1 month): 120 µg/L
- Migration ([3]; 0.30 pct, 2 months): 120 µg/L
- Migration ([3]; 0.30 pct, 10 days): 70 µg/L
- Migration ([3]; 0.30 pct, 20 days): 100 µg/L
- thermostabilisation of copolymer versus 2-phenyl indole [4]: better result than 0.3 p.c.r. of 2-phenyl indole
- Oxidation potential [5]: 850 millivolts
- Oxidation potential [6]: 0.74 ± 0.01
- Colour stability [7, 8]: 50 min
- Thermal stability [7, 8]: 50 min
- Colour stability [7, 9]: 45 min
- Thermal stability [7, 9]: 55 min
- Colour stability [7, 10]: 35 min
- Thermal stability [7, 10]: 50 min
- basic shade and thermal stability ([7]; words): substantially improves the basic shade and clearly increases the thermal stability
